ChEMBL document CHEMBL1201862, “PubChem BioAssay data set” (2004)
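Cultured in 96-well plates, cells were exposed to test compound for 48 hours across five concentrations. At the GI50, growth is halved.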 Active and inactive are the calls of the source. No stated cut-off is given here; in the data, active = GI50 up to about 1.1 µM and inactive = higher.

How the values were obtained:
Assay in all cases: DTP human tumour cell line panel, 48 h
[1] = test system: 786-0
[2] = test system: A498
[3] = test system: A549
[4] = test system: ACHN
[5] = test system: BT-549
[6] = test system: CAKI-1
[7] = test system: CCRF-CEM
[8] = test system: COLO 205
[9] = test system: DU-145
[10] = test system: EKVX
[11] = test system: HCC 2998
[12] = test system: HCT-116
[13] = test system: HCT-15
[14] = test system: HL-60
[15] = test system: HOP-62
[16] = test system: HOP-92
[17] = test system: HT-29
[18] = test system: Hs-578T
[19] = test system: K562
[20] = test system: LOX IMVI
[21] = test system: M14
[22] = test system: MCF7
[23] = test system: MDA-MB-231
[24] = test system: MDA-MB-435
[25] = test system: MDA-N
[26] = test system: MOLT-4
[27] = test system: Malme-3M
[28] = test system: NCI-H226
[29] = test system: NCI-H23
[30] = test system: NCI-H460
[31] = test system: NCI-H522
[32] = test system: OVCAR-3
[33] = test system: OVCAR-4
[34] = test system: OVCAR-5
[35] = test system: PC-3
[36] = test system: RPMI-8226
[37] = test system: RXF 393
[38] = test system: SF-268
[39] = test system: SF-295
[40] = test system: SF-539
[41] = test system: SK-MEL-28
[42] = test system: SK-MEL-2
[43] = test system: SK-MEL-5
[44] = test system: SK-OV-3
[45] = test system: SN12C
[46] = test system: SNB-19
[47] = test system: SR
[48] = test system: SW-620
[49] = test system: T47D
[50] = test system: TK-10
[51] = test system: U-251
[52] = test system: UACC-257
[53] = test system: UACC-62
[54] = test system: UO-31
[55] = test system: IGROV-1
[56] = test system: KM12
[57] = test system: NCI/ADR-RES
[58] = test system: OVCAR-8
[59] = test system: SNB-75

Measured: GI50

CSc1nc(=S)[nH]c2c1c(C)nn2-c1ccccc1
inactive: [1] 24.3 µM | [2] 30.5 µM | [3] 31.3 µM | [4] 21.9 µM | [5] 19.7 µM | [6] 21.2 µM | [7] 10.6 µM | [8] 20.1 µM | [9] 15.6 µM | [10] 18.1 µM | [11] 30.6 µM | [12] 17.8 µM | [14] 28.1 µM | [15] 41.7 µM | [16] 7.1 µM | [17] 28.5 µM | [18] 38 µM | [19] 16.6 µM | [20] 15.7 µM | [21] 40.5 µM | [22] 17.8 µM | [23] 22.2 µM | [24] 40.5 µM | [25] 24.8 µM | [26] 14.2 µM | [27] 17.1 µM | [28] 17.7 µM | [29] 17.6 µM | [30] 10.2 µM | [31] 19.1 µM | [32] 35.5 µM | [33] 17.2 µM | [34] 51.1 µM | [35] 25.7 µM | [36] 6.73 µM | [37] 26.2 µM | [38] 22.1 µM | [39] 22.9 µM | [40] 28.1 µM | [41] 38.8 µM | [42] 22.8 µM | [43] 13.1 µM | [44] 24.8 µM | [45] 21.1 µM | [46] 23.3 µM | [47] 11.2 µM | [48] 34.5 µM | [49] 19.1 µM | [50] 24.4 µM | [51] 29.4 µM | [52] 20.5 µM | [53] 14.5 µM | [54] 22 µM
20.3 µM: [13]

COC(=O)c1ccccc1/C=C1\Cc2cc(C)c(C)cc2C1=O
inactive: [1] 54.8 µM | [2] 73.3 µM | [3] > 100 µM | [4] > 100 µM | [5] 34.5 µM | [6] > 100 µM | [7] > 100 µM | [8] > 100 µM | [9] > 100 µM | [10] > 100 µM | [11] > 100 µM | [12] > 100 µM | [14] > 100 µM | [15] 30.4 µM | [16] 21.2 µM | [17] > 100 µM | [18] 40.7 µM | [55] > 100 µM | [19] > 100 µM | [56] > 100 µM | [20] > 100 µM | [21] > 100 µM | [22] > 100 µM | [24] > 100 µM | [25] > 100 µM | [26] > 100 µM | [27] > 100 µM | [28] 49 µM | [30] > 100 µM | [31] 73.8 µM | [57] > 100 µM | [32] > 100 µM | [33] > 100 µM | [34] > 100 µM | [58] 55.7 µM | [35] > 100 µM | [36] > 100 µM | [37] 89.1 µM | [38] 40.3 µM | [39] 49.3 µM | [40] > 100 µM | [41] > 100 µM | [42] 14 µM | [43] > 100 µM | [45] > 100 µM | [46] 33.4 µM | [59] 26.5 µM | [47] > 100 µM | [48] > 100 µM | [49] > 100 µM | [50] 36.9 µM | [51] 27.1 µM | [52] > 100 µM | [53] > 100 µM | [54] 84.1 µM
> 100 µM: [13]

COc1ccc2c(ccc3c(COC(=O)NC(C)C)c(COC(=O)NC(C)C)n(C)c32)c1
active: [30] 0.414 µM | [47] 0.655 µM
9.79 µM: [13]
inactive: [1] 3.26 µM | [2] 7.33 µM | [3] 11.3 µM | [4] 1.81 µM | [5] 11.9 µM | [6] 2.11 µM | [7] 3.21 µM | [8] 10.8 µM | [10] 16.4 µM | [12] 6.04 µM | [15] 4.99 µM | [16] 11.2 µM | [17] 10.8 µM | [18] 13.7 µM | [55] 4.13 µM | [19] 6.08 µM | [56] 11.5 µM | [20] 4.62 µM | [21] 9.06 µM | [22] 4.75 µM | [23] 16.3 µM | [24] 7.74 µM | [25] 12.3 µM | [26] 3.34 µM | [27] 2.54 µM | [28] 3.08 µM | [29] 3.5 µM | [31] 2.36 µM | [57] 5.01 µM | [32] 12.7 µM | [33] 12.4 µM | [34] 9.79 µM | [58] 5.9 µM | [35] 11.1 µM | [36] 10 µM | [37] 9.02 µM | [38] 5.19 µM | [39] 8.79 µM | [40] 5.82 µM | [42] 17.1 µM | [43] 13.2 µM | [44] 16.7 µM | [46] 14.2 µM | [59] 4.6 µM | [48] 11.5 µM | [49] 7.52 µM | [50] 11.2 µM | [51] 15.1 µM | [52] 12.7 µM | [53] 4.42 µM | [54] 5.98 µM
